Results: article PMC6764212 (ACS Central Science, 2019)
Where two headings read alike, the source gives them in different places.

Key:
GABAAR(α1/β3/γ2) [1] = biological target: T1, GABAAR(α1/β3/γ2) (Homo sapiens, UniProt P14867+P18507+P28472); test: Ligand detection / high-throughput screening by fluorescence change ratio; format: binding; settings: for assignment of hit compound from the screening: third and fourth screening, LOPAC1280, 10 μM
GABAAR(α1/β3/γ2) [2] = biological target: T1, GABAAR(α1/β3/γ2); test: Dissociation constant of PAM at fixed 10 μM GABA; format: binding
GABAAR(α1/β3/γ2) [3] = biological target: T1, GABAAR(α1/β3/γ2); test: Whole-cell patch-clamp electrophysiology in GABAAR-transfected HEK293T cells; format: cell-based; settings: for chloride currents in the absence of GABA at high concentrations: 100 μM for CGP-7930 and CGP-13501, 25 μM for vinpocetine, Retro-2 and YC-1
GABAARs = settings: cited from earlier work
GABAAR(α1/β3/γ2) [4] = biological target: T1, GABAAR(α1/β3/γ2); format: binding

CC1=C(C)C(=O)C(CCCCC#CCCCC#CCO)=C(C)C1=O [AA-861]
assignment of hit compound from the screening (GABAAR(α1/β3/γ2) [1]): PAM candidates

CC(C)(CO)Cc1cc(C(C)(C)C)c(O)c(C(C)(C)C)c1 [CGP-7930, 2,6-Di-tert-butyl-4-(3-hydroxy-2,2-dimethyl-propyl)-phenol]
Kd (GABAAR(α1/β3/γ2) [2]): 13100 nM | assignment of hit compound from the screening (GABAAR(α1/β3/γ2) [1]): PAM candidates | chloride currents in the absence of GABA at high concentrations (GABAAR(α1/β3/γ2) [3]; no GABA): increased the chloride currents

CCOC(=O)c1cncn1[C@H](C)c1ccccc1 [etomidate]
fluorescence change (ΔF/F0) upon ligand addition in the absence of GABA (GABAAR(α1/β3/γ2) [1]): negligible fluorescence change | fluorescence change (ΔF/F0) upon ligand addition in the presence of GABA (GABAAR(α1/β3/γ2) [1]): pronounced fluorescent decrease | Kd (GABAARs; read-out: Kd of etomidate previously reported using live cells): 1800 nM

COc1ccc(-c2ccc(=N)n(CCCC(=O)O)n2)cc1 [gabazine]
Kd (GABAAR(α1/β3/γ2) [4]): 214 nM | concentration at which the fluorescence decrease reached saturation (GABAAR(α1/β3/γ2) [4]; 100 nM Gzn-OG, CLSM image): approximately 10 μM | fluorescence change (ΔF/F0) upon ligand addition in the absence of GABA (GABAAR(α1/β3/γ2) [1]): significant decrease | fluorescence change (ΔF/F0) upon ligand addition in the presence of GABA (GABAAR(α1/β3/γ2) [1]): significant decrease | assignment of hit compound from the screening (GABAAR(α1/β3/γ2) [1]): potential orthosteric ligands

COc1ccc2c(c1OC)C(=O)O[C@@H]2[C@H]1c2cc3c(cc2CCN1C)OCO3 [hydrastine]
assignment of hit compound from the screening (GABAAR(α1/β3/γ2) [1]): potential orthosteric ligands

CC(C)c1cccc(C(C)C)c1O [propofol]
Kd (GABAAR(α1/β3/γ2) [2]): 5600 nM | fluorescence change (ΔF/F0) upon ligand addition in the absence of GABA (GABAAR(α1/β3/γ2) [1]): negligible fluorescence change | fluorescence change (ΔF/F0) upon ligand addition in the presence of GABA (GABAAR(α1/β3/γ2) [1]): pronounced fluorescent decrease | Kd (GABAARs; read-out: Kd of propofol previously reported using live cells): 1900 nM

CCOC(=O)C1=C[C@]2(CC)CCCN3CCc4c(n1c1ccccc41)[C@@H]32 [vinpocetine]
Kd (GABAAR(α1/β3/γ2) [2]): 1400 nM | assignment of hit compound from the screening (GABAAR(α1/β3/γ2) [1]): PAM candidates | chloride currents in the absence of GABA at high concentrations (GABAAR(α1/β3/γ2) [3]; no GABA): increased the chloride currents | effect on GABA-induced chloride currents (GABAAR(α1/β3/γ2) [3]; [compound] = 3 μM, [GABA] = 30 μM, −60 mV): reversibly enhanced | direct activation of GABAARs at low concentrations (GABAAR(α1/β3/γ2) [3]; low concentrations (3 μM), no GABA): did not induce any direct activation of GABAARs

Cc1ccc(-c2nc3ccc(C)cn3c2CC(=O)N(C)C)cc1 [zolpidem]
fluorescence change (ΔF/F0) upon ligand addition in the absence of GABA (GABAAR(α1/β3/γ2) [1]): negligible fluorescence change | fluorescence change (ΔF/F0) upon ligand addition in the presence of GABA (GABAAR(α1/β3/γ2) [1]): pronounced fluorescent decrease

picrotoxin
fluorescence change (ΔF/F0) upon ligand addition in the absence of GABA (GABAAR(α1/β3/γ2) [1]): no effect on the fluorescence intensity | fluorescence change (ΔF/F0) upon ligand addition in the presence of GABA (GABAAR(α1/β3/γ2) [1]): no effect on the fluorescence intensity
